These results are taken from patent publication US11192851B2, “Crystal of L-alanyl-L-glutamine and method for producing same” (KYOWA HAKKO BIO CO., LTD., priority 2016, dated 2021).

Residues, ends and D or L forms follow the SMILES beside them.

Common to all, as to assay type: physicochemical
The nature of data set [1]: Loose specific volume of crystals (50 mL measuring cylinder, two-stage funnel). The following applies: crystal powder. Here is the method:
The loose specific volume refers to a value obtained by dividing volume occupied by a powder by the mass of the powder when a container is filled with the powder and the mass of the powder is measured. A crystal with a low loose specific volume is excellent in filling properties, and easy to handle in various processing steps, and also its transportation cost is low. Therefore, the loose specific volume is preferably low. The loose specific volume can be measured by a method comprising: dropping crystals to a 50 mL glass measuring cylinder via a two-stage glass funnel to make the volume of the crystal to be about 45 mL, and measuring the weight of the crystals. A value obtained by dividing the measured volume of the crystal by the weight is determined to be the loose specific volume.

Data set [2] in a line: Dense specific volume of crystals (after tapping the cylinder 100 times). The settings on record: crystal powder, after tapping 100 times. Here is the method:
The dense specific volume refers to a value obtained by dividing volume of a powder by the mass of the powder, when a container is filled with the powder and the mass of the powder is measured and then a given impact is applied to the container. The dense specific volume can be measured by a method comprising: dropping a crystal to a 50 mL glass measuring cylinder via a two-stage glass funnel to make the volume of the crystal to be about 45 mL; measuring the weight of the crystal; then tapping the measuring cylinder up and down for 100 times; and measuring the volume occupied by the crystal. A value obtained by dividing the measured volume of the crystal by the weight thereof is determined to be the dense specific volume.

Data set [3] can be described thus: Angle of repose (Multi Tester MT-1001T). The following applies: crystal powder, sieve 1.18 mm, vibration width 0.7 to 0.8 mm. As to the method:
The angle of repose refers to an angle formed by a generating line of a cone formed with a powder when the powder is allowed to gently fall onto the horizontal plane through a kind of funnel and a horizontal plane.
[Measurement Conditions for Angle of Repose]
Vibration width: 0.7 to 0.8 mm
The angle-of-repose table is rotated without being given vibration, angles are read at three sites, and an arithmetic mean value of the angles is determined to be the angle of repose.

The nature of data set [4]: Angle of rupture (Multi Tester MT-1001T). The settings on record: crystal powder, after three impacts. The source says:
The angle of rupture refers to an angle formed by a generating line of a cone, formed when a given impact is indirectly applied to a cone formed with a powder by allowing the powder to gently fall onto the horizontal plane through a kind of funnel, and a horizontal plane.
[Specific Example of Measurement Method for Angle of Rupture]
The operation is repeated for three times. Angles are read at three sites by a method similar to the measurement method for the angle of repose, and an arithmetic mean value of the angles is determined to be the angle of rupture.

The nature of data set [5]: Drying loss (water content of crystal by thermal analysis, TG/DTA). The following applies: water content in the crystals as loss on drying of the thermal analysis. Here is the method: The crystal of L-alanyl-L-glutamine can be confirmed to be a crystal of nonhydrate when the water content, which is measured by using a thermal analysis according to a method described in the following measurement example, is generally 3.0 wt % or less, preferably 2.5 wt % or less, and more preferably 2.0 wt % or less.
[Measurement Example of Water Content of Crystal according to Thermal Analysis]
Used equipment: EXSTAR 6000 TG/DTA 6200 (manufactured by Seiko Instruments Inc.)
Measurement conditions: Temperature increases from 20° C. to 30° C. at 20° C./min→Hold for 15 minutes at 30° C.→Temperature increases from 30° C. to 250° C. at 5° C./min
Nitrogen flow rate: 300 mL/min
About the known crystal obtained by the method described in Japanese Patent No. 4931801 and the crystals of L-alanyl-L-glutamine nonhydrate of the present invention obtained in Examples 10 to 12, the results, which measured in terms of the loose specific volume, the dense specific volume, the angle of repose, the angle of rupture, and the water content in the crystals as loss on drying of the thermal analysis, are shown in Table 17.

In data set [1], `CCO.C[C@H](N)C(=O)N[C@@H](CCC(N)=O)C(=O)O` [Example 4 (95° C. vacuum drying), L-alanyl-L-glutamine n-ethanolate] (H-Ala-Gln-OH) came in with a Loose specific volume of 3.61 mL/g. The same molecule yielded a Dense specific volume in data set [2] of 2.21 mL/g. In data set [3], this molecule came in with an Angle of repose of 42.5 °. The Angle of rupture in data set [4] stood at 38.6 °.
In data set [1], `C[C@H](N)C(=O)N[C@@H](CCC(N)=O)C(=O)O` [Patent No. 4931801 (nonhydrate), L-alanyl-L-glutamine nonhydrate, reference compound] (H-Ala-Gln-OH) returned a Loose specific volume of 5.27 mL/g. In addition, the Dense specific volume in data set [2] was 2.66 mL/g. In addition, the Angle of repose in data set [3] was 50.9 °. In addition, in data set [4], the Angle of rupture was 46.0 °. This molecule also had a Drying loss in data set [5] of 0.2%.
For `C[C@H](N)C(=O)N[C@@H](CCC(N)=O)C(=O)O` [Example 10, L-alanyl-L-glutamine nonhydrate] (H-Ala-Gln-OH) the same measures were 3.69 mL/g, 2.59 mL/g, 46.4 °, 39.5 ° and 1.9%.
Consider `C[C@H](N)C(=O)N[C@@H](CCC(N)=O)C(=O)O` [Example 12, L-alanyl-L-glutamine nonhydrate] (H-Ala-Gln-OH), for which, in data set [1], the Loose specific volume is given as 3.07 mL/g. The Dense specific volume in data set [2] was 2.37 mL/g. Moreover, the Angle of repose in data set [3] worked out at 44.7 °. The Angle of rupture in data set [4] is on record as 41.4 °. The same molecule yielded a Drying loss in data set [5] of 0.3%.
In the same order, the values of `C[C@H](N)C(=O)N[C@@H](CCC(N)=O)C(=O)O` [Example 11, L-alanyl-L-glutamine nonhydrate] (H-Ala-Gln-OH) are 3.65 mL/g, 2.84 mL/g, 42.8 °, 38.0 ° and 1.9%.
As to `CCO.C[C@H](N)C(=O)N[C@@H](CCC(N)=O)C(=O)O` [Example 4 (25° C. vacuum drying), L-alanyl-L-glutamine n-ethanolate] (H-Ala-Gln-OH), in data set [1], the Loose specific volume was determined as 3.23 mL/g. In data set [2], this molecule registered a Dense specific volume of 2.32 mL/g. The same molecule registered an Angle of repose in data set [3] of 39.4 °. Also, in data set [4], the Angle of rupture was 35.1 °.
For `CCO.C[C@H](N)C(=O)N[C@@H](CCC(N)=O)C(=O)O` [Example 1, L-alanyl-L-glutamine n-ethanolate] (H-Ala-Gln-OH), the Loose specific volume in data set [1] was 2.55 mL/g. Moreover, the Dense specific volume in data set [2] is 2.08 mL/g. In data set [3], this molecule showed an Angle of repose of 39.7 °. Moreover, the Angle of rupture in data set [4] turned out to be 34.6 °.
In the same order, the values of `C[C@H](N)C(=O)N[C@@H](CCC(N)=O)C(=O)O.O.O` [Example 7, L-alanyl-L-glutamine dihydrate] (H-Ala-Gln-OH) are 3.27 mL/g, 2.73 mL/g, 43.8 ° and 38.8 °.
For `C[C@H](N)C(=O)N[C@@H](CCC(N)=O)C(=O)O` [Example 5, L-alanyl-L-glutamine nonhydrate] (H-Ala-Gln-OH) the same measures were 2.60 mL/g, 2.28 mL/g, 40.2 ° and 34.7 °.
Molecule `CCO.C[C@H](N)C(=O)N[C@@H](CCC(N)=O)C(=O)O` [Example 2 (95° C. vacuum drying), L-alanyl-L-glutamine n-ethanolate] (H-Ala-Gln-OH) displayed a Loose specific volume in data set [1] of 2.47 mL/g. Besides, the Dense specific volume in data set [2] is listed as 1.88 mL/g. Also, in data set [3], the Angle of repose is given as 41.2 °. Besides, the Angle of rupture in data set [4] stood at 35.0 °.
